Measured values reported in the OligoGym collection.
HELM strings list units from the 5' end as sugar, base in round brackets, then linkage (d deoxyribose, r ribose, m 2'-O-methyl, p phosphodiester). Strings are as the collection lists them, not checked against the first reports. ss, as = sense and antisense strand; [lna] = locked nucleic acid (LNA); [una] = unlocked nucleic acid; [s4r] = 4'-thioribose; [fl2r] = 2'-fluoro

Conditions: siRNA
Further: test system not given here.

Substance	target mRNA knockdown [%]
RNA1{r(G)p.r(G)p.r(A)p.r(A)p.m(G)p.r(U)p.r(A)p.r(A)p.r(G)p.r(G)p.r(A)p.r(C)p.r(C)p.r(A)p.r(G)p.r(A)p.r(G)p.r(A)p.r(C)p.r(T)p.r(T)}|RNA2{r(G)p.r(U)p.r(C)p.r(U)p.r(C)p.r(U)p.r(G)p.r(G)p.r(U)p.r(C)p.r(C)p.r(U)p.m(U)p.r(A)p.r(C)p.r(U)p.r(U)p.r(C)p.r(C)p.r(T)p.r(T)}$$$RNA1{StrandType:ss}|RNA2{StrandType:as}$	44
RNA1{[fl2r](C)p.r(A)p.r(G)p.[fl2r](C)p.r(A)p.r(A)p.r(A)p.[fl2r](C)p.[fl2r](C)p.r(A)p.[fl2r](C)p.r(G)p.r(A)p.[fl2r](U)p.[fl2r](C)p.r(A)p.r(A)p.[fl2r](U)p.r(A)p.r(T)p.r(T)}|RNA2{[fl2r](U)p.r(A)p.[fl2r](U)p.[fl2r](U)p.r(G)p.r(A)p.[fl2r](U)p.[fl2r](C)p.r(G)p.[fl2r](U)p.r(G)p.r(G)p.[fl2r](U)p.[fl2r](U)p.[fl2r](U)p.r(G)p.[fl2r](C)p.[fl2r](U)p.r(G)p.r(T)p.r(T)}$$$RNA1{StrandType:ss}|RNA2{StrandType:as}$	71
RNA1{r(C)p.r(U)p.r(U)p.r(A)p.r(C)p.r(G)p.r(C)p.r(U)p.r(G)p.r(A)p.r(G)p.r(U)p.r(A)p.r(C)p.r(U)p.r(U)p.r(C)p.r(G)p.r(A)p.d(T)p.d(T)}|RNA2{r(U)p.r(C)p.r(G)p.r(A)p.r(A)p.r(G)p.r(U)p.r(A)p.r(C)p.[lna](T)p.r(C)p.r(A)p.r(G)p.r(C)p.r(G)p.r(U)p.r(A)p.r(A)p.r(G)p.[lna](T)p.[lna](T)}$$$RNA1{StrandType:ss}|RNA2{StrandType:as}$	52
RNA1{m(G)p.r(G)p.m(C)p.r(G)p.m(G)p.r(G)p.m(C)p.r(U)p.m(C)p.r(U)p.m(U)p.r(U)p.m(C)p.r(C)p.m(U)p.r(A)p.m(U)p.r(U)p.m(C)p.r(T)p.r(T)}|RNA2{r(G)p.r(A)p.r(A)p.r(U)p.r(A)p.r(G)p.r(G)p.r(A)p.r(A)p.r(A)p.r(G)p.r(A)p.r(G)p.r(C)p.r(C)p.r(C)p.r(G)p.r(C)p.r(C)p.r(T)p.r(T)}$$$RNA1{StrandType:ss}|RNA2{StrandType:as}$	51
RNA1{[fl2r](A)p.r(A)p.[fl2r](C)p.r(C)p.[fl2r](C)p.r(A)p.[fl2r](C)p.r(C)p.[fl2r](A)p.r(C)p.[fl2r](A)p.r(G)p.[fl2r](C)p.r(U)p.[fl2r](A)p.r(G)p.[fl2r](A)p.r(A)p.[fl2r](C)p.r(U)p.r(U)}|RNA2{[fl2r](G)p.r(U)p.r(U)p.r(C)p.r(U)p.r(A)p.[fl2r](G)p.r(C)p.r(U)p.[fl2r](G)p.r(U)p.[fl2r](G)p.[fl2r](G)p.r(U)p.[fl2r](G)p.[fl2r](G)p.[fl2r](G)p.r(U)p.r(U)p.r(U)p.r(U)}$$$RNA1{StrandType:ss}|RNA2{StrandType:as}$	57
RNA1{r(A)p.m(U)p.r(A)p.r(C)p.r(U)p.r(U)p.r(G)p.r(G)p.r(C)p.r(G)p.r(G)p.r(G)p.r(C)p.r(U)p.r(C)p.r(U)p.r(U)p.r(U)p.r(C)p.r(T)p.r(T)}|RNA2{r(G)p.r(A)p.r(A)p.r(A)p.r(G)p.r(A)p.r(G)p.r(C)p.r(C)p.r(C)p.r(G)p.r(C)p.r(C)p.r(A)p.r(A)p.r(G)p.r(U)p.r(A)p.r(U)p.r(T)p.r(T)}$$$RNA1{StrandType:ss}|RNA2{StrandType:as}$	48
RNA1{r(G)p.r(G)p.r(C)p.r(U)p.[fl2r](U)p.r(A)p.r(G)p.r(U)p.r(C)p.r(A)p.r(C)p.r(U)p.r(C)p.r(C)p.r(U)p.r(C)p.r(U)p.r(U)p.r(C)p.r(T)p.r(T)}|RNA2{r(G)p.r(A)p.r(A)p.r(G)p.r(A)p.r(G)p.r(G)p.r(A)p.r(G)p.r(U)p.r(G)p.r(A)p.r(C)p.[fl2r](U)p.r(A)p.r(A)p.r(G)p.r(C)p.r(C)p.r(T)p.r(T)}$$$RNA1{StrandType:ss}|RNA2{StrandType:as}$	69
RNA1{r(A)p.r(A)p.r(C)p.r(C)p.r(C)p.r(A)p.r(C)p.r(C)p.r(A)p.r(C)p.r(A)p.r(G)p.r(C)p.r(U)p.r(A)p.r(G)p.r(A)p.r(A)p.r(C)p.r(U)p.r(U)}|RNA2{r(A)p.r(A)p.r(G)p.[fl2r](U)p.[fl2r](U)p.r(C)p.[fl2r](U)p.r(A)p.r(G)p.r(C)p.r(U)p.r(G)p.[fl2r](U)p.r(G)p.r(G)p.[fl2r](U)p.r(G)p.r(G)p.r(G)p.[fl2r](U)p.[fl2r](U)}$$$RNA1{StrandType:ss}|RNA2{StrandType:as}$	14
RNA1{[s4r](C)p.[s4r](G)p.[s4r](U)p.[s4r](A)p.r(C)p.r(G)p.r(C)p.r(G)p.r(G)p.r(A)p.r(A)p.r(U)p.r(A)p.r(C)p.r(U)p.r(U)p.r(C)p.r(G)p.r(A)p.r(T)p.r(T)}|RNA2{r(U)p.r(C)p.r(G)p.r(A)p.r(A)p.r(G)p.r(U)p.r(A)p.r(U)p.r(U)p.r(C)p.r(C)p.r(G)p.r(C)p.r(G)p.[s4r](U)p.[s4r](A)p.[s4r](C)p.[s4r](G)p.r(T)p.r(T)}$$$RNA1{StrandType:ss}|RNA2{StrandType:as}$	86.1
RNA1{[fl2r](A)p.r(C)p.[fl2r](A)p.r(U)p.[fl2r](A)p.r(G)p.[fl2r](A)p.r(G)p.[fl2r](G)p.r(A)p.[fl2r](A)p.r(G)p.r(A)p.r(C)p.r(G)p.r(C)p.r(G)p.r(G)p.r(A)p.r(T)p.r(T)}|RNA2{[fl2r](U)p.r(C)p.[fl2r](C)p.r(G)p.[fl2r](C)p.r(G)p.[fl2r](U)p.r(C)p.[fl2r](U)p.r(U)p.[fl2r](C)p.r(C)p.[fl2r](U)p.r(C)p.[fl2r](U)p.r(A)p.[fl2r](U)p.r(G)p.r(U)p.r(T)p.r(T)}$$$RNA1{StrandType:ss}|RNA2{StrandType:as}$	57
RNA1{r(G)p.r(A)p.r(A)p.m(U)p.r(A)p.r(A)p.r(C)p.r(C)p.r(U)p.r(G)p.r(A)p.r(A)p.r(C)p.r(G)p.r(U)p.m(C)p.r(A)p.r(C)p.r(C)p.r(T)p.r(T)}|RNA2{r(G)p.r(G)p.r(U)p.r(G)p.r(A)p.r(C)p.r(G)p.r(U)p.r(U)p.m(C)p.r(A)p.r(G)p.r(G)p.r(U)p.r(U)p.r(A)p.r(U)p.r(U)p.r(C)p.r(T)p.r(T)}$$$RNA1{StrandType:ss}|RNA2{StrandType:as}$	71
RNA1{r(A)p.r(U)p.m(A)p.r(C)p.r(U)p.r(U)p.r(G)p.r(G)p.r(C)p.r(G)p.r(G)p.r(G)p.r(C)p.r(U)p.r(C)p.r(U)p.r(U)p.r(U)p.r(C)p.r(T)p.r(T)}|RNA2{r(G)p.r(A)p.r(A)p.r(A)p.r(G)p.r(A)p.r(G)p.r(C)p.r(C)p.r(C)p.r(G)p.r(C)p.m(C)p.r(A)p.r(A)p.r(G)p.r(U)p.r(A)p.r(U)p.r(T)p.r(T)}$$$RNA1{StrandType:ss}|RNA2{StrandType:as}$	72
RNA1{r(G)p.m(C)p.r(A)p.r(G)p.r(C)p.r(A)p.r(C)p.r(G)p.r(A)p.r(C)p.r(U)p.r(U)p.r(C)p.r(U)p.r(U)p.r(C)p.r(A)p.r(A)p.r(G)p.r(U)p.r(U)}|RNA2{r(U)p.[fl2r](U)p.r(C)p.r(G)p.r(U)p.r(C)p.r(G)p.r(U)p.r(G)p.r(C)p.r(U)p.r(G)p.r(A)p.r(A)p.r(G)p.r(A)p.r(A)p.r(G)p.r(U)p.r(U)p.r(C)}$$$RNA1{StrandType:ss}|RNA2{StrandType:as}$	77.2
RNA1{[fl2r](G)p.m(A)p.[fl2r](C)p.m(G)p.[fl2r](U)p.m(A)p.[fl2r](A)p.m(A)p.[fl2r](C)p.m(G)p.[fl2r](G)p.m(C)p.[fl2r](C)p.m(A)p.[fl2r](C)p.m(A)p.[fl2r](A)p.m(G)p.[fl2r](U)p.m(U)p.[fl2r](C)}|RNA2{r(A)p.m(C)p.r(U)p.r(U)p.r(G)p.r(U)p.r(G)p.r(G)p.r(C)p.r(C)p.r(G)p.r(U)p.r(U)p.r(U)p.r(A)p.r(C)p.r(G)p.r(U)p.r(C)p.r(G)p.r(C)}$$$RNA1{StrandType:ss}|RNA2{StrandType:as}$	46.2
RNA1{m(U)p.r(U)p.m(G)p.r(G)p.m(G)p.r(G)p.m(A)p.r(A)p.m(G)p.r(C)p.m(G)p.r(G)p.m(C)p.r(C)p.m(G)p.r(G)p.m(C)p.r(G)p.m(G)p.r(T)p.r(T)}|RNA2{r(C)p.r(C)p.r(G)p.r(C)p.r(C)p.r(G)p.r(G)p.r(C)p.r(C)p.r(G)p.r(C)p.r(U)p.r(U)p.r(C)p.r(C)p.r(C)p.r(C)p.m(A)p.m(A)p.r(T)p.r(T)}$$$RNA1{StrandType:ss}|RNA2{StrandType:as}$	36
RNA1{r(A)p.r(A)p.r(A)p.r(C)p.[fl2r](C)p.[fl2r](A)p.r(G)p.r(G)p.r(A)p.r(A)p.r(G)p.r(G)p.r(G)p.r(G)p.r(A)p.r(A)p.r(A)p.r(U)p.r(C)p.r(T)p.r(T)}|RNA2{r(G)p.r(A)p.r(U)p.r(U)p.r(U)p.r(C)p.r(C)p.r(C)p.r(C)p.r(U)p.r(U)p.r(C)p.r(C)p.r(U)p.r(G)p.r(G)p.r(U)p.r(U)p.r(U)p.r(T)p.r(T)}$$$RNA1{StrandType:ss}|RNA2{StrandType:as}$	64
RNA1{m(U)p.r(A)p.m(A)p.r(A)p.m(G)p.r(C)p.m(U)p.r(G)p.m(G)p.r(A)p.m(A)p.r(A)p.m(G)p.r(G)p.m(G)p.r(A)p.m(C)p.r(G)p.m(G)p.r(T)p.r(T)}|RNA2{r(C)p.r(C)p.r(G)p.r(U)p.r(C)p.r(C)p.r(C)p.r(U)p.r(U)p.r(U)p.r(C)p.r(C)p.m(A)p.r(G)p.r(C)p.r(U)p.r(U)p.r(U)p.m(A)p.r(T)p.r(T)}$$$RNA1{StrandType:ss}|RNA2{StrandType:as}$	29
RNA1{r(A)p.r(A)p.r(C)p.r(C)p.[fl2r](C)p.r(A)p.r(C)p.r(C)p.r(A)p.[fl2r](C)p.r(A)p.r(G)p.r(C)p.[fl2r](U)p.r(A)p.r(G)p.r(A)p.r(A)p.r(C)p.r(U)p.r(U)}|RNA2{r(G)p.r(U)p.r(U)p.r(C)p.[fl2r](U)p.r(A)p.r(G)p.r(C)p.[fl2r](U)p.r(G)p.[fl2r](U)p.r(G)p.r(G)p.[fl2r](U)p.r(G)p.r(G)p.r(G)p.r(U)p.r(U)p.r(U)p.r(U)}$$$RNA1{StrandType:ss}|RNA2{StrandType:as}$	79
RNA1{r(G)p.r(G)p.r(A)p.r(C)p.r(A)p.r(U)p.r(U)p.r(C)p.r(A)p.r(G)p.r(A)p.r(A)p.r(C)p.r(A)p.r(A)p.r(G)p.r(A)p.r(A)p.r(A)p.[una](U)p.[una](U)}|RNA2{r(U)p.r(U)p.r(U)p.r(C)p.[una](U)p.r(U)p.r(G)p.r(U)p.r(U)p.r(C)p.r(U)p.r(G)p.r(A)p.r(A)p.r(U)p.r(G)p.r(U)p.r(C)p.r(C)p.[una](U)p.[una](U)}$$$RNA1{StrandType:ss}|RNA2{StrandType:as}$	37
